Reference: ChEMBL document CHEMBL6109122 (J Med Chem, 2025)
Active and inactive are the calls of the source. No cut-off for these calls is given here.

Legend:
[1] = AUC (0 to infinity) in male ICR mouse at 5 mg/kg, ip measured up to 24 hrs by LC-MS/MS analysis; assay type: ADME, organism-based; conditions: in vivo
[2] = target: T1, Non-receptor tyrosine-protein kinase TYK2 (Homo sapiens, UniProt P29597); experiment: Displacement of fluorophore-labeled probe from TYK2 JH2 domain (unknown origin) by HTRF assay
[3] = test system: Jurkat; experiment: Downregulation of JAK1 protein level in human Jurkat cells at 1 to 100 nM measured after 10 hrs by Western blot analysis; assay type: functional, cell-based; conditions: dose 1-100 nM
[4] = test system: Jurkat; experiment: Effect on JAK3 protein level in human Jurkat cells at 30 nM measured after 4 hrs by DIA-Based Proteomic analysis; assay type: functional, cell-based
[5] = target: T2, Protein cereblon/Non-receptor tyrosine-protein kinase TYK2 (Homo sapiens, UniProt P29597+Q96SW2); experiment: PROTAC activity at CRBN/TYK2 in human Jurkat cells assessed as induction of degradation of TYK2 measured after 10 hrs by Western blot analysis; assay type: cell-based
Target sequence in this assay (P29597 whole entry): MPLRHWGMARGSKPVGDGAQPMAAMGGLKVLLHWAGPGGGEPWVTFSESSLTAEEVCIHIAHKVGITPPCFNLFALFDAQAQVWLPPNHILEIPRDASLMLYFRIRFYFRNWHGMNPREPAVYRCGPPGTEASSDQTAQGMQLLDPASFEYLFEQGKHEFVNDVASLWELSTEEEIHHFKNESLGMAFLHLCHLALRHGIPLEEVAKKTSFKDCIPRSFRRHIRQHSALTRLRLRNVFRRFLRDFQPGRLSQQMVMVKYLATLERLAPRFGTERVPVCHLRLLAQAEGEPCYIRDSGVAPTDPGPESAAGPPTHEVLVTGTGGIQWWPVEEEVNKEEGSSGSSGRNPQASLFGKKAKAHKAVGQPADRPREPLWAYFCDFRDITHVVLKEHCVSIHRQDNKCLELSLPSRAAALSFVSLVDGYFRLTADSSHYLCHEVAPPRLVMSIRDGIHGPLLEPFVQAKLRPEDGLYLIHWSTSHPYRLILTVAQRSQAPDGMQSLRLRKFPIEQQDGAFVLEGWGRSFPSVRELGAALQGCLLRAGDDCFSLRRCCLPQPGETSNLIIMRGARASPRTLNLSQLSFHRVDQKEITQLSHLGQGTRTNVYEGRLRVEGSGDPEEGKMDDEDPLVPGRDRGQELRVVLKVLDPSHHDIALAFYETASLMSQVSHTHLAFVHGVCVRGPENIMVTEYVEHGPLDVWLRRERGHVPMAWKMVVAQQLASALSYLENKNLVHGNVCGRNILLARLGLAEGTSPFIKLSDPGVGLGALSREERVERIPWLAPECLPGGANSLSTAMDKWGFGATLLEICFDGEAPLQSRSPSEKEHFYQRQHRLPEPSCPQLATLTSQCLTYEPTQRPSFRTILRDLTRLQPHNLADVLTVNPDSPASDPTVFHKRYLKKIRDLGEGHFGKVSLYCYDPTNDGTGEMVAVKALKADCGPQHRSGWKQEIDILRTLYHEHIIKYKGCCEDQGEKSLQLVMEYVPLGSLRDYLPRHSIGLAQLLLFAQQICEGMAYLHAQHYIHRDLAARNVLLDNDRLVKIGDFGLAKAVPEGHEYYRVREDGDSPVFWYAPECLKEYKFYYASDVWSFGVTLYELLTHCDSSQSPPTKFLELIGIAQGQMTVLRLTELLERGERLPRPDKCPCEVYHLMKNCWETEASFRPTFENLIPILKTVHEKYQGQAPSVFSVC
Target sequence in this assay (Q96SW2 whole entry): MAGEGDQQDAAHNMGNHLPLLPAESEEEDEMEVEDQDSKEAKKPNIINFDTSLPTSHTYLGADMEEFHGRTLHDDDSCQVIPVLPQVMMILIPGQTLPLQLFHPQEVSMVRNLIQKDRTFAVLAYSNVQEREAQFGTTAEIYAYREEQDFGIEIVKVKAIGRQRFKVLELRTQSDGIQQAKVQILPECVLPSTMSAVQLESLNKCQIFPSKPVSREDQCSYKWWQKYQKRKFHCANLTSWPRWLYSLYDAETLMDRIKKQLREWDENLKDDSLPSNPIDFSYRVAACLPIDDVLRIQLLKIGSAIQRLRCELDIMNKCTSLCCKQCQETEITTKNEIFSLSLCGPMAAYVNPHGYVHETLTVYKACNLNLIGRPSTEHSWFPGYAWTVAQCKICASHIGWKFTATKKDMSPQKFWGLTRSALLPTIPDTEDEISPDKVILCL

[6] = target: T2, Protein cereblon/Non-receptor tyrosine-protein kinase TYK2; experiment: PROTAC activity at CRBN/TYK2 in human Jurkat cells assessed as induction of degradation of TYK2 at 10 nM preincubated with deucravacitinib for 2 hrs followed by compound addition and measured after 10 hrs by Western blot analysis; assay type: cell-based
Target sequence in this assay (P29597 whole entry, looked up): as the sequence (P29597 whole entry) above
Target sequence in this assay (Q96SW2 whole entry, looked up): as the sequence (Q96SW2 whole entry) above

[7] = target: T2, Protein cereblon/Non-receptor tyrosine-protein kinase TYK2; experiment: PROTAC activity at CRBN/TYK2 in human Jurkat cells assessed as induction of degradation of TYK2 at 1 nM measured after 10 hrs by Western blot analysis relative to control; assay type: cell-based
Target sequence in this assay (P29597 whole entry, looked up): as the sequence (P29597 whole entry) above
Target sequence in this assay (Q96SW2 whole entry, looked up): as the sequence (Q96SW2 whole entry) above

[8] = Half life in male ICR mouse at 5 mg/kg, ip measured up to 24 hrs by LC-MS/MS analysis; assay type: ADME, organism-based; conditions: in vivo
[9] = test system: Mus musculus; experiment: Anti-inflammatory activity in imiquimod-induced female BALB/c mouse psoriasis model assessed as reduction in micro abscess at 5 mg/kg, ip administered daily topically for 6 days by H and E staining based analysis; assay type: functional, organism-based; conditions: time 6.0 day
[10] = MRT (0 to infinity) in male ICR mouse at 5 mg/kg, ip measured up to 24 hrs by LC-MS/MS analysis; assay type: ADME, organism-based; conditions: in vivo
[11] = test system: Mus musculus; experiment: Anti-inflammatory activity in imiquimod-induced female BALB/c mouse psoriasis model assessed as reduction in IL-23 expression in skin at 15 mg/kg, ip administered daily topically for 6 days by ELISA method; assay type: functional, organism-based; conditions: time 6.0 day
[12] = test system: Jurkat; experiment: Downregulation of Aiolos level in human Jurkat cells at 30 nM measured after 4 hrs by DIA-Based Proteomic analysis; assay type: functional, cell-based
[13] = species on record: Mus musculus; experiment: Anti-inflammatory activity in imiquimod-induced female BALB/c mouse psoriasis model assessed as reduction in IL-17 expression in serum by ELISA method; assay type: functional, organism-based
[14] = species on record: Mus musculus; experiment: Anti-inflammatory activity in imiquimod-induced female BALB/c mouse psoriasis model assessed as reduction in IL-17 expression in skin by ELISA method; assay type: functional, organism-based
[15] = Metabolic stability in mouse liver microsomes assessed as half life measured up to 120 mins by LC-MS/MS analysis; assay type: ADME, Microsome
[16] = test system: Mus musculus; experiment: Anti-inflammatory activity in imiquimod-induced female BALB/c mouse psoriasis model assessed as reduction in hyperkeratosis at 5 mg/kg, ip administered daily topically for 6 days by H and E staining based analysis; assay type: functional, organism-based; conditions: time 6.0 day
[17] = Cmax in male ICR mouse at 5 mg/kg, ip measured up to 24 hrs by LC-MS/MS analysis; assay type: ADME, organism-based; conditions: in vivo
[18] = test system: Mus musculus; experiment: Anti-inflammatory activity in imiquimod-induced female BALB/c mouse psoriasis model assessed as reduction in IL-17 expression in skin at 15 mg/kg, ip administered daily topically for 6 days by ELISA method; assay type: functional, organism-based; conditions: time 6.0 day
[19] = Inhibition of TYK2 dependent STAT3 phosphorylation in IL-12 stimulated human PBMC cells preincubated for 60 mins followed by IL-12 stimulation and measured after 60 mins by FACS assay; assay type: cell-based
[20] = Metabolic stability in mouse liver microsomes assessed as intrinsic clearance measured up to 120 mins by LC-MS/MS analysis; assay type: ADME, Microsome; conditions: read-out: CLH
[21] = Tmax in male ICR mouse at 5 mg/kg, ip measured up to 24 hrs by LC-MS/MS analysis; assay type: ADME, organism-based; conditions: in vivo
[22] = test system: Jurkat; experiment: Downregulation of TYK2 protein level in human Jurkat cells at 1 to 100 nM measured after 10 hrs by Western blot analysis; assay type: functional, cell-based; conditions: dose 1-100 nM
[23] = Apparent permeability of the compound in human Caco-2 cells at 10 uM measured up to 120 min by LC-MS/MS analysis; assay type: ADME, cell-based
[24] = target: T1, Non-receptor tyrosine-protein kinase TYK2; experiment: Binding affinity to TYK2 JH1 domain (unknown origin) by ADP-glo kinase assay
[25] = species on record: Mus musculus; experiment: Anti-inflammatory activity in imiquimod-induced female BALB/c mouse psoriasis model assessed as reduction in TYK2 protein expression by Immunohistochemical analysis; assay type: functional, organism-based
[26] = target: T2, Protein cereblon/Non-receptor tyrosine-protein kinase TYK2; experiment: PROTAC activity at CRBN/TYK2 in human Jurkat cells assessed as induction of degradation of TYK2 at 10 nM preincubated with MG132 for 2 hrs followed by compound addition and measured after 10 hrs by Western blot analysis; assay type: cell-based
Target sequence in this assay (P29597 whole entry, looked up): as the sequence (P29597 whole entry) above
Target sequence in this assay (Q96SW2 whole entry, looked up): as the sequence (Q96SW2 whole entry) above

[27] = target: T2, Protein cereblon/Non-receptor tyrosine-protein kinase TYK2; experiment: PROTAC activity at CRBN/TYK2 in human Jurkat cells assessed as induction of degradation of TYK2 at 100 nM measured after 10 hrs by Western blot analysis relative to control; assay type: cell-based
Target sequence in this assay (P29597 whole entry, looked up): as the sequence (P29597 whole entry) above
Target sequence in this assay (Q96SW2 whole entry, looked up): as the sequence (Q96SW2 whole entry) above

[28] = test system: Jurkat; experiment: Effect on JAK1 protein level in human Jurkat cells at 30 nM measured after 4 hrs by DIA-Based Proteomic analysis; assay type: functional, cell-based
[29] = Inhibition of IFN-alpha activated TYK2 dependent STAT3 phosphorylation in human Jurkat cells incubated for 10 hrs by Western blot analysis; assay type: cell-based
[30] = target: T3, Tyrosine-protein kinase JAK1 (Homo sapiens, UniProt P23458); experiment: Displacement of fluorophore-labeled probe from JAK1 JH2 domain (unknown origin) by HTRF assay
[31] = species on record: Mus musculus; experiment: Anti-inflammatory activity in imiquimod-induced female BALB/c mouse psoriasis model assessed as reduction in IL-23 expression in serum by ELISA method; assay type: functional, organism-based
[32] = target: T2, Protein cereblon/Non-receptor tyrosine-protein kinase TYK2; experiment: PROTAC activity at CRBN/TYK2 in human Jurkat cells assessed as induction of degradation of TYK2 at 10 nM measured after 10 hrs by Western blot analysis relative to control; assay type: cell-based
Target sequence in this assay (P29597 whole entry, looked up): as the sequence (P29597 whole entry) above
Target sequence in this assay (Q96SW2 whole entry, looked up): as the sequence (Q96SW2 whole entry) above

[33] = species on record: Mus musculus; experiment: Anti-inflammatory activity in imiquimod-induced female BALB/c mouse psoriasis model assessed as reduction in INF-alpha expression in skin by ELISA method; assay type: functional, organism-based
[34] = target: T3, Tyrosine-protein kinase JAK1; experiment: Binding affinity to JAK1 (unknown origin) by ADP-glo kinase assay
[35] = MRT (0 to t) in male ICR mouse at 5 mg/kg, ip measured up to 24 hrs by LC-MS/MS analysis; assay type: ADME, organism-based; conditions: in vivo
[36] = test system: Mus musculus; experiment: Anti-inflammatory activity in imiquimod-induced female BALB/c mouse psoriasis model assessed as effect on body weight at 5 mg/kg, ip administered daily topically for 6 days; assay type: functional, organism-based; conditions: time 6.0 day
[37] = target: T2, Protein cereblon/Non-receptor tyrosine-protein kinase TYK2; experiment: PROTAC activity at CRBN/TYK2 in human HaCaT cells assessed as induction of degradation of TYK2 measured after 10 hrs by Western blot analysis; assay type: cell-based; conditions: dose 1-100 nM
Target sequence in this assay (P29597 whole entry, looked up): as the sequence (P29597 whole entry) above
Target sequence in this assay (Q96SW2 whole entry, looked up): as the sequence (Q96SW2 whole entry) above

T3 sequence (P23458 whole entry, the tested form may be a part): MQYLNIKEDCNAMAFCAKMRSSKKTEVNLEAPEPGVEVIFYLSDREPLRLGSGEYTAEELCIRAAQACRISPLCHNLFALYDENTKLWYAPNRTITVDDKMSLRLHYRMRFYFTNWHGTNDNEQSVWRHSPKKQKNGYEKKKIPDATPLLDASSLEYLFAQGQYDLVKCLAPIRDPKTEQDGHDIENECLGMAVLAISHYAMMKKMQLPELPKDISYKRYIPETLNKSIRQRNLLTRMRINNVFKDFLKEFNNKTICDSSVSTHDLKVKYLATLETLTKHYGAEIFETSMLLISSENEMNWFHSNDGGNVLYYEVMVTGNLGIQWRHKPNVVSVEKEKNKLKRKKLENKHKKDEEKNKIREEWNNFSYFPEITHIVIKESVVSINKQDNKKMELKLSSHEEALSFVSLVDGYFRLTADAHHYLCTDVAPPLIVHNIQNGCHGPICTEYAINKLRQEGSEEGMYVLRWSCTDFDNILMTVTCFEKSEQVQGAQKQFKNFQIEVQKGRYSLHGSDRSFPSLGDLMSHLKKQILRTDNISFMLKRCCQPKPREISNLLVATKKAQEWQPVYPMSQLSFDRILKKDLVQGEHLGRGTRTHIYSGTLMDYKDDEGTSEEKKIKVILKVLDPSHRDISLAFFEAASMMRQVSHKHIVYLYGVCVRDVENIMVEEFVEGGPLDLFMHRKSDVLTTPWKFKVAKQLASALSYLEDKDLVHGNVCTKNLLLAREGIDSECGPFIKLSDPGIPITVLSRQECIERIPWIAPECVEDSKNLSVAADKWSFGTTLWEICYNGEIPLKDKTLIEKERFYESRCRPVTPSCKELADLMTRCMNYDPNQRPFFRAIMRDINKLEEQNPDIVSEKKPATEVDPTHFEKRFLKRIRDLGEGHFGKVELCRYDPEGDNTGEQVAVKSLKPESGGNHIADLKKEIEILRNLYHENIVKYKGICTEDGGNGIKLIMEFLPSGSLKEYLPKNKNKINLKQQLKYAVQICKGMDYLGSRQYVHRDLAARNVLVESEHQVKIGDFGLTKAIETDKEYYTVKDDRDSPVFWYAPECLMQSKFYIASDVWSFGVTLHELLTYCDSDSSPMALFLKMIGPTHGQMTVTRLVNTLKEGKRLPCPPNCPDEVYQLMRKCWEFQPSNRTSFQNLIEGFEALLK
T1 sequence (P29597 whole entry, the tested form may be a part): as the sequence (P29597 whole entry) above

AUC(0-inf) [1]: 4780 ng·h/mL | IC50 [2]: 1.2 nM | DC50 [5]: 0.42 nM | Activity [6]: inactive | Activity [7]: 63% | half-life [8]: 2.7 h | MRT inf [10]: 4.2 h | half-life [15]: 1.68 h | Cmax [17]: 1300 ng/mL | IC50 [19]: 8.6 nM | CLint scaled [20]: 54 mL/min/kg | Tmax [21]: 0.4 h | Papp at 2 h, 10 µM [23]: < 0.1 ×10⁻⁶ cm/s | IC50 [24]: > 10000 nM | Activity [26]: inactive | Activity [27]: 90% | IC50 [29]: 6.7 nM | IC50 [30]: > 100 nM | Activity [32]: 96% | IC50 [34]: > 10000 nM | MRT last at 24 h [35]: 4.1 h | Activity [37]: Dose-dependent-effect
SMILES: CNC(=O)c1cnc(Nc2ccc(C(=O)NC3CCC(Nc4ccc5c(c4)C(=O)N(C4CCC(=O)NC4=O)C5=O)CC3)cn2)cc1Nc1cccc(-c2ncc(F)cn2)c1OC (configuration not stated)
Activity [3]: Active | Activity [4]: inactive | Activity [9]: Active | Activity [11]: Active | Activity [12]: inactive | Activity [13]: Active | Activity [14]: Active | Activity [16]: Active | Activity [18]: Active | Activity [22]: Active | Activity [25]: Active | Activity [28]: inactive | Activity [31]: Active | Activity [33]: Active | Activity [36]: Active
